Results from US20200138802A1, “Aggressive Lipid Lowering Therapy in Coronary Artery Disease” (Kowa Company, Ltd., priority 2018, published 2020).

Experiments:
[1] = 4 mg of pitavastatin; cited from earlier work
[2] = Randomized open-label phase 4 trial of pitavastatin 4 mg/day versus 1 mg/day in Japanese patients with stable coronary artery disease; assay type: in vivo, human
Method: This study was a prospective, multicenter, randomized, open-label, blinded-endpoint, physician-initiated phase 4 trial designed to investigate whether high-dose statin therapy could reduce CV events in patients with stable CAD as compared with low-dose statin therapy. We hypothesized that aggressive lipid lowering treatment with pitavastatin 4 mg/day would reduce the incidence of the composite endpoint comprised of CV death, non-fatal myocardial infarction (MI), non-fatal ischemic stroke, and unstable angina requiring emergency hospitalization. The control group received pitavastatin 1 mg/day.
Men and women aged 20 to 80 years with clinically evident stable CAD and elevated LDL-C were eligible for this study. CAD was defined as 1) previous ACS, such as acute myocardial infarction or unstable angina; 2) a previous coronary revascularization procedure (PCI or coronary artery bypass grafting (“CABG”)); or 3) atherosclerotic CAD detected by coronary artery angiography with at least 75% stenosis in major epicardial coronary arteries (American Heart Association classification). (30) Patients with elevated LDL-C at entry were defined as (1) patients not receiving chronic lipid-lowering therapy with LDL-C≥140 mg/dL, (2) patients with LDL-C≥100 mg/dL and considered by the attending physician to need lipid-lowering therapy, or (3) patients being treated with lipid-lowering therapy.
Exclusion criteria included (1) any planned coronary revascularization procedure, (2) active malignancy, (3) contraindication for pitavastatin (hypersensitivity to pitavastatin, severe liver disease or hepatic dysfunction, concurrent cyclosporine use, or suspected or confirmed pregnancy or current breastfeeding), (4) severe congestive heart failure (ejection fraction<30% or NYHA class≥3), (5) current hemodialysis, (6) familial hypercholesterolemia, (7) current participation in another clinical trial, (8) current use of any prohibited drug (lipid-lowering drug other than pitavastatin) that could not be discontinued during the study, and (9) any other finding that would make the patient unsuitable for this study in the opinion of the investigators.
Participants were recruited at 733 hospitals in Japan. During screening visits, informed consent and baseline medical history were obtained, and a clinical examination and laboratory testing were performed. Blood samples were collected to determine fasting lipid levels and the patient's standard clinical profile. After discontinuation of all previous lipid-lowering therapies, all eligible patients started receiving treatment with pitavastatin 1 mg/day on an open-label basis for at least 1 month (run-in period). At the end of the run-in period (week 0), those patients with LDL-C levels below 120 mg/dL, measured by a central laboratory using Friedwald's formula, were eligible for randomization. Patients with prior ACS or coronary revascularization could be randomized beyond 3 months after the index event. Randomization was not allowed for patients with poor adherence (less than 50%) for the study drug during the run-in period or for patients with the primary endpoint events during the run-in period.
Patients were randomized in a 1:1 ratio to either pitavastatin 4 mg or pitavastatin 1 mg once daily. Randomized treatment assignment was stratified by 5 factors: 1) institution, 2) prior statin use, 3) age (<65 or ≥65), 4) diabetes, and 5) sex. Patients were to be followed for 3 years, and study visits were scheduled at 6 months for the first visit and every year thereafter. At each visit, information on vital signs, clinical endpoints, adverse events, and concurrent medication was collected. In addition, physical examinations and electrocardiograms were performed and blood specimens were collected at 6 months and every 12 months thereafter for lipid and other laboratory tests. […]

## O=C(O)C[C@H](O)C[C@H](O)/C=C/c1c(C2CC2)nc2ccccc2c1-c1ccc(F)cc1 [pitavastatin]
[1]
  reduction of LDL-C from baseline: 42.9%
[2]; 1 mg and 4 mg pitavastatin groups, FIG. 8
  incidence rates of individual CV events: death from any cause, myocardial infarction, and coronary revascularization results: positive
[2]; patients converted from 1 mg dose to 4 mg dose of pitavastatin, stable CAD, FIG. 2
  LDL-C: statistically significant reduction
[2]; patients converted from 1 mg dose to 4 mg dose of pitavastatin, stable CAD, FIG. 3
  HDL-C: numerically superior increase
[2]; patients converted from 1 mg dose to 4 mg dose of pitavastatin, stable CAD, FIG. 4
  TG: statistically significant reduction
[2]; patients converted from 1 mg dose to 4 mg dose of pitavastatin, stable CAD, FIG. 5
  hs-CGP: statistically significant reduction
[2]; patients converted from 1 mg dose to 4 mg dose of pitavastatin, stable CAD, FIG. 6
  primary clinical endpoint (composite of CV death, MI, ischemic stroke and UA): statistically significant reduction
[2]; patients converted from 1 mg dose to 4 mg dose of pitavastatin, stable CAD, FIG. 7
  secondary clinical endpoint (primary endpoint+coronary revascularization): statistically significant reduction
[2]; subgroup analysis, 1 mg versus 4 mg pitavastatin, FIG. 9
  effect of LDL-C status (≥95 mg/dL or <95 mg/dL) on primary endpoint incidence rates: did not affect the results
